In article PMC8041284, “Tunable Methacrylamides for Covalent Ligand Directed Release Chemistry” (Journal of the American Chemical Society, 2021):

Target: BTK (Homo sapiens, UniProt Q06187)
Test: biochemical
Conditions: read-out: BTK inhibition (%)

Sequence of BTK (Q06187 402-655 limits assumed): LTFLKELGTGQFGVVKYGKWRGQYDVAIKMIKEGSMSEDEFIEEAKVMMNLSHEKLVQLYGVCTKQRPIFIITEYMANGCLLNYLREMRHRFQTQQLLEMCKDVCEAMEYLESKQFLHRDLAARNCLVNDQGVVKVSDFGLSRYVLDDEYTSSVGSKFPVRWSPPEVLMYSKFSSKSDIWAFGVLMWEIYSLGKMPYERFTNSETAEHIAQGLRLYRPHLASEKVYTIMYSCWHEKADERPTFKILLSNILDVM

SMILES	inhibition at 10 µM [%]
C[C@]12N[C@H](Cc3ccccc31)c1ccccc12 [PCM-0064989]	3.9

Same assay, conditions: read-out: BTK inhibition (%), 0.75 uM BTK, […] probe 3l, 15 min preincubation

SMILES	inhibition at 10 µM [%]
COc1cccc(-c2c(C)n(Cc3c(F)cccc3C(F)(F)F)c(=O)n(C[C@H](NCCCC(=O)O)c3ccccc3)c2=O)c1F [PCM-0215104]	-7
CC(C)Oc1ccc(-c2nn([C@@H](C)c3oc4ccc(F)cc4c(=O)c3-c3cccc(F)c3)c3ncnc(N)c23)cc1F [PCM-0215802]	-2.1
CC(=O)N[C@@H](CC(C)C)C(=O)N[C@@H](CC(C)C)C(=O)N[C@H](C=O)CCCN=C(N)N [PCM-0215331]	9.3
CN1CCC(COc2cnc(-c3cccc(Cn4nc(-c5cccc(C#N)c5)ccc4=O)c3)nc2)CC1 [PCM-0215322]	22.1
CC[C@@](C)(Nc1ccnc(-c2c[nH]c3ncccc23)n1)C(=O)NCC(F)(F)F [PCM-0215573]	2.1
Cc1ccc(C(=O)Nc2ccc(CN3CCN(C)CC3)c(C(F)(F)F)c2)cc1C#Cc1cnc2[nH]ncc2c1 [PCM-0215209]	114
COc1cc(C(=O)N(CCCc2ccccc2)Cc2ccc(CC(=O)O)cc2)cc(OC)c1C [PCM-0215725]	16.2
NC(N)=NCCC[C@H](N)C(=O)NCC(=O)N[C@@H](CC(=O)O)C(=O)O [PCM-0215176]	9.4
Cc1cnc(NC(=O)Nc2cc(Br)c(C)cc2OC[C@@H]2CNCCO2)cn1 [PCM-0095485]	7.6
CC(C)n1c(/C=C/[C@H](O)C[C@H](O)CC(=O)O)c(-c2ccc(F)cc2)c2ccccc21 [PCM-0090402]	15.9
O=C(NOCC(O)CO)c1cc(Br)c(F)c(F)c1Nc1ccc(I)cc1F (stereo not drawn) [PCM-0095128]	-19.3
CCCN1CCO[C@@H]2c3cc(O)ccc3OC[C@H]21 [PCM-0095211]	-8.6
CCCC(CCC)C(N)=O [PCM-0215111]	19.3
CC[C@H](C)[C@H](N)C(=O)N[C@H]1CSSC[C@@H](C(=O)N[C@H](C(N)=O)[C@@H](C)O)NC(=O)[C@H](CCCN=C(N)N)NC(=O)[C@H](Cc2cnc[nH]2)NC(=O)[C@H](Cc2cnc[nH]2)NC(=O)CNC(=O)[C@H](Cc2c[nH]c3ccccc23)NC(=O)[C@H](CC(=O)O)NC(=O)[C@H](CCC(N)=O)NC(=O)[C@H](C(C)C)NC(=O)[C@H](C(C)C)NC1=O [PCM-0215822]	-3.4
COc1cc(/C=C/C(=O)CC(=O)/C=C/c2ccc(O)c(OC)c2)ccc1O [PCM-0091011]	102
COc1ccccc1OCC(O)COC(N)=O (stereo not drawn) [PCM-0085814]	14.8
COc1ccc(C(=O)O)c(O)c1 [PCM-0215974]	2.3
COc1cc(CCC(C)=O)ccc1O [PCM-0094824]	-0.8
C=CC/C(=N\OS(=O)(=O)O)S[C@@H]1O[C@H](CO)[C@@H](O)[C@H](O)[C@H]1O [PCM-0216356]	3.9
CCCc1ccc(OCC(=O)N(Cc2nc(-c3cccnc3)no2)C(C)C)cc1 [PCM-0215326]	-16.2
N#CC(=C(/N)Sc1ccccc1N)/C(C#N)=C(\N)Sc1ccccc1N [PCM-0064783]	-4.1
COc1cc2nccc(Oc3ccc(NC(=O)c4cn(C(C)C)c(=O)n(-c5ccc(F)cc5)c4=O)cc3F)c2cc1OC [PCM-0215831]	12.4
COc1cccc(OC)c1C(=O)OCc1cc(O)ccc1O[C@@H]1O[C@H](CO)[C@@H](O)[C@H](O)[C@H]1O [PCM-0216173]	0
Cc1cc(C)c2c(c1)[C@@H](N(Cc1cc(C(F)(F)F)cc(C(F)(F)F)c1)c1nnn(C)n1)CCCN2CC1CCC(C(=O)O)CC1 (stereo partly drawn) [PCM-0095426]	16.3
O=C1C(c2[nH]c3ccccc3c2O)=Nc2ccccc21 [PCM-0215050]	28.8

SMILES	inhibition at 10 µM [%]
COc1cc2nc(N3CCN(C(=O)c4ccco4)CC3)nc(N)c2cc1OC [PCM-0065512]	-6
COc1cc2c(cc1OC)CN(CCc1ccc(NC(=O)c3cc(OC)c(OC)cc3NC(=O)c3cnc4ccccc4c3)cc1)CC2 [PCM-0095616]	4.6
CN(NC(=O)CC(=O)NN(C)C(=S)c1ccccc1)C(=S)c1ccccc1 [PCM-0094978]	-6.9
C[C@H]1[C@H](C)CC[C@]2(C(=O)O)CC[C@]3(C)C(=CC[C@@H]4[C@@]5(C)C[C@@H](O)[C@H](O)C(C)(C)[C@@H]5CC[C@]43C)[C@H]12 [PCM-0216596]	6.2
O=C1C[C@@H](c2ccccc2)Oc2cc(O)cc(O)c21 [PCM-0214944]	11.7
OCCOCCN1CCN(C(c2ccccc2)c2ccc(Cl)cc2)CC1 (stereo not drawn) [PCM-0085866]	4.1
C=CC(=O)Nc1cc(Nc2nccc(-c3cn(C)c4ccccc34)n2)c(OC)cc1N(C)CCN(C)C [PCM-0215305]	80.7
CCc1c(Cl)c(O)c(Cl)c(O)c1C(=O)O[C@H]1[C@H](O)[C@H](OC)[C@H](OC/C2=C\C=C\C[C@H](O)/C(C)=C/[C@H](CC)[C@@H](O[C@@H]3OC(C)(C)[C@@H](OC(=O)C(C)C)[C@H](O)[C@@H]3O)/C(C)=C/C(C)=C/C[C@@H]([C@@H](C)O)OC2=O)O[C@@H]1C [PCM-0214774]	45.9
C[S+]([O-])c1ccc(-c2nc(-c3ccc(F)cc3)c(-c3ccncc3)[nH]2)cc1 (stereo not drawn) [PCM-0095024]	18.6
NC1(C(=O)N[C@@H](CCO)c2ccc(Cl)cc2)CCN(c2ncnc3[nH]ccc23)CC1 [PCM-0095607]	33.1
Cn1cc(-c2ccc3ncc(Cc4ccc5ncccc5c4)n3n2)cn1 [PCM-0095521]	-16.6
CC(=O)O/N=C1\C(=O)N(Cc2cc(Cl)ccc2Cl)c2ccc(Cl)cc21 [PCM-0095733]	28.6
O=C(O)P(=O)(O)O [PCM-0090233]	1.6
O=C(O)CCCNC(=O)c1cccnc1 [PCM-0216143]	-17
CC(NC(=O)c1ccccc1N=Cc1c(O)ccc2ccccc12)c1ccccc1 (stereo not drawn) [PCM-0095400]	9
O=C1CC(=O)c2c(Cl)c(Cl)c(Cl)c(Cl)c21 [PCM-0215201]	79.5
Clc1ccc(N/N=C(\c2ccccc2)c2ccccn2)nc1 [PCM-0215265]	6.2
O=C(O)[C@H](O)c1ccccc1 [PCM-0216338]	-10
CC(=O)O[C@H](CC=C(C)C)C1=CC(=O)c2c(O)ccc(O)c2C1=O [PCM-0216503]	35.7
O=c1cc(-c2ccc(O)c(O)c2)oc2c([C@@H]3O[C@H](CO)[C@@H](O)[C@H](O)[C@H]3O)c(O)cc(O)c12 [PCM-0216392]	-22.4
COc1ccc(CCNCC(O)COc2cccc(C)c2)cc1OC (stereo not drawn) [PCM-0216046]	-4.6
O=C(Nc1cc2cc[nH]c2cn1)c1ccccc1 [PCM-0215233]	0.8
CC(C)=CCC[C@](C)(O)[C@H]1CC[C@]2(C)[C@@H]1[C@H](O)C[C@@H]1[C@@]3(C)CC[C@H](O[C@@H]4O[C@H](CO)[C@@H](O)[C@H](O)[C@H]4O)C(C)(C)[C@@H]3CC[C@]12C [PCM-0216344]	7.7
COC(=O)[C@@]1(C)CC[C@]2(C(=O)O)CC[C@]3(C)C(=CC[C@@H]4[C@@]5(C)C[C@H](O)[C@H](O)[C@@](C)(CO)[C@@H]5CC[C@]43C)[C@@H]2C1 [PCM-0216474]	-0.8
O=c1[nH]c(=O)n(C2CCCO2)cc1F (stereo not drawn) [PCM-0094899]	-3.1

SMILES	inhibition at 10 µM [%]
Nc1nc2ccc(OC(F)(F)F)cc2s1 [PCM-0065440]	-10.1
COc1cc(NC(=O)c2ccccn2)ccc1Cl [PCM-0095344]	15.6
CN1CCN(C(=O)/C=C/c2ccc([N+](=O)[O-])o2)CC1 [PCM-0215590]	4.6
CN/C(=C\[N+](=O)[O-])NCCSCc1ccc(CN(C)C)o1 [PCM-0065476]	-3.4
O=C(O)/C=C/CCCCCCCO [PCM-0214957]	3.4
FC(F)c1nc2ccccc2n1-c1nc(N2CCOCC2)nc(N2CCOCC2)n1 [PCM-0095021]	16.6
NC(=O)c1nc(F)c[nH]c1=O [PCM-0215543]	-6.2
O=c1c(-c2ccc(O[C@@H]3O[C@H](CO)[C@@H](O)[C@H](O)[C@H]3O)cc2)coc2cc(O)cc(O)c12 [PCM-0215108]	-9.7
COc1ccc(-c2oc3c(CC=C(C)C)c(O[C@@H]4O[C@H](CO)[C@@H](O)[C@H](O)[C@H]4O)cc(O)c3c(=O)c2O[C@@H]2O[C@@H](C)[C@H](O)[C@@H](O)[C@H]2O[C@@H]2O[C@@H](C)[C@H](O)[C@@H](O)[C@H]2O)cc1 [PCM-0216512]	-13.1
O=C(/C=C\n1cnc(-c2cc(C(F)(F)F)cc(C(F)(F)F)c2)n1)N1CC(F)(F)C1 [PCM-0095738]	-16.2
Nc1nc2c(ncn2COCCO)c(=O)[nH]1 [PCM-0064530]	-15.6
O=S(=O)(O)c1cc(O)ccc1O [PCM-0086281]	3.9
C[N+]1(C)CCC[C@H]1C(=O)[O-] [PCM-0214966]	7.8
CS(=O)(=O)c1ccc(-c2nnc(/C=C/c3nnc(-c4ccc(C#N)cc4)o3)n2-c2ccccc2Cl)nc1 [PCM-0215499]	0
C[C@H](N)C(=O)O [PCM-0216222]	-4.3
CCCN1C[C@H](CSC)C[C@@H]2c3cccc4[nH]cc(c34)C[C@H]21 [PCM-0065439]	-1.6
O=c1c(O)c(-c2ccc(O)cc2O)oc2cc(O)cc(O)c12 [PCM-0065541]	10.1
CC1(C)C=C(CN2C/C(=C\c3ccc(F)cc3)C(=O)/C(=C/c3ccc(F)cc3)C2)C(C)(C)N1O [PCM-0095780]	9.3
O=C1C(=Cc2cccnc2)C(=O)c2ccccc21 [PCM-0216080]	20.8
Nc1ccccc1NC(=O)c1ccc(CNC(=O)OCc2cccnc2)cc1 [PCM-0094980]	9.7
O=S(=O)(N=Cc1c(O)ccc2ccccc12)c1cccs1 [PCM-0215452]	-11.6
Clc1ncnc2nc[nH]c12 [PCM-0215064]	9.3
COc1ccc2c(Oc3ccc(NC(=O)c4c(C)n(CC(C)(C)O)n(-c5ccccc5)c4=O)nc3)ccnc2c1 [PCM-0095484]	12.4
C/C(O)=C(\C#N)C(=O)Nc1cc(Br)ccc1Br [PCM-0215429]	-1.4
